The text below walks through data of ChEMBL document CHEMBL1129930, “Analogues of methotrexate in rheumatoid arthritis. 2. Effects of 5-deazaaminopterin, 5,10-dideazaaminopterin, and analogues on type II collagen-induced arthritis in mice” (J Med Chem, 1997).

The subject of experiment [1] is Mus musculus. Put plainly: Tested for antiinflammatory activity on mouse type II collagen arthritis as Paw swelling of all animals in each group on day 37 at intraperitoneal dose of 10 mg/kg. It counts as functional.
For another experiment, the system named is L1210. Put plainly: Concentration required to inhibit the growth of L1210 cells. The conditions noted are these: Mus musculus. Format: functional, cell-based.
In experiment [2] the test system is Mus musculus. Put plainly: Tested for antiinflammatory activity on mouse type II collagen arthritis as Paw swelling of all animals in each group on day 30 at intraperitoneal dose of 10 mg/kg. It counts as functional.
The test system of experiment [3] is Mus musculus. Put plainly: Incidence of disease (mouse type II collagen) was scored as the percentage of animals within each experimental group that exhibited joint or limb inflammation on day 37 at intraperitoneal dose of 10 mg/kg. It counts as functional.
Experiment [4] deals with Mus musculus. Put plainly: Tested for antiinflammatory activity on mouse type II collagen arthritis as Paw swelling of all animals in each group on day 44 at intraperitoneal dose of 10 mg/kg. Format: functional.
The test system of experiment [5] is Mus musculus. Put plainly: Incidence of disease (mouse type II collagen) was scored as the percentage of animals within each experimental group that exhibited joint or limb inflammation on day 44 at intraperitoneal dose of 10 mg/kg. Format: functional.
Experiment [6] relates to Mus musculus. Put plainly: Incidence of disease (mouse type II collagen) was scored as the percentage of animals within each experimental group that exhibited joint or limb inflammation on day 30 at intraperitoneal dose of 10 mg/kg. Format: functional.
Experiment [7] can be described thus: Concentration required to inhibit the growth of chang liver cells. It counts as functional. The conditions noted are these: Homo sapiens.
Experiment [8] relates to Mus musculus. Put plainly: Incidence of disease (mouse type II collagen) was scored as the percentage of animals within each experimental group that exhibited joint or limb inflammation on day 23 at intraperitoneal dose of 10 mg/kg. It counts as functional.
Experiment [9] deals with Mus musculus. Put plainly: Tested for antiinflammatory activity on mouse type II collagen arthritis as Paw swelling of all animals in each group on day 23 at intraperitoneal dose of 10 mg/kg. Format: functional.

For `CC(Cc1cnc2nc(N)nc(N)c2c1)c1ccc(C(=O)NC(CCC(=O)O)C(=O)O)cc1` (stereo not given), the Paw swelling in the experiment with Mus musculus [1] was 2.22 mm; with Mus musculus [2], 2.23 mm; in the experiment on Mus musculus [4] it was 2.24 mm; in the experiment with Mus musculus [9] it was 2.24 mm. Besides, the IC50 (usually the point on the concentration scale where inhibition reaches its midpoint) is 0.0075 µM in the experiment with L1210 and 0.078 µM in experiment [7]. Further, the Animals is on record as 20% in the experiment on Mus musculus [3], 20% in the experiment on Mus musculus [5], 0% in the experiment on Mus musculus [6] and 20% in the experiment on Mus musculus [8].
